Results on 4 compounds are retold here after US11841369B2, “Method for improving quality of therapeutic cell through real-time glutathione measurement” (CELL2IN, INC., priority 2017, dated 2023).

Assay [1] relates to hES-MSCs. Nature of the assay: PDGF-AA-induced cell migration of unsorted hES-MSCs. It is filed as cell-based, human. As to conditions: hES-MSCs not sorted by FreSH-Tracer. On the procedure:
Main factors for determining the therapeutic efficacy of hBM-MSCs, namely a colony forming unit-fibroblast (CFU-F) and a graft survival rate, were evaluated in cell culture models.
In order to test whether direct control of a GSH level in stem cells leads to changes in cell functions, hES-MSCs sorted by FreSH-Tracer were treated with buthionine sulfoximine (BSO; glutathione synthesis inhibitor) and glutathione ethyl ester (GSH-EE). When GSH was decreased in cells by treating GSH^High cells with BSO (80 μM, 24 h), it was confirmed that CFU-F increased, and on the other hand, when GSH was increased by treating GSH^Low cells with GSH-EE (1 mM, 2 h), it was confirmed that CFU-F decreased (FIG. 13A). In addition, it was confirmed that, when hES-MSCs which were not sorted by FreSH-Tracer were treated with BSO or GSH-EE, PDGF-AA-induced cell migration capacity was decreased or increased, respectively (FIG. 13B).

In assay [2] the test system is hES-MSCs. The experiment in a line: CFU-F of FreSH-Tracer-sorted hES-MSCs. Format: cell-based, human. As for the experimental part:
Twelve hours after hES-MSCs were seeded in […] tissue culture media at a density of 3×10^6 cells/mL, the cells were washed two times with 30 mL of PBS, and labeled with an EGM-2 MV culture solution containing 2 μM FreSH for 2 hours. After the two hours, the cells were washed with 2 μM FreSH-containing PBS twice and treated with a TrypsinLE (Invitrogen) solution to detach the cells, and then trypsin was inactivated with a fresh EGM-2 MV medium containing 2 μM FreSH. Afterward, the cells were centrifuged at 4° C. and 2000 rpm for 20 minutes, and resuspended in a fresh EGM-2 MV medium containing 2 μM FreSH to have a density of 5×10^7 cells/mL. The suspension was diluted 1/5 with PBS containing 2 μM FreSH immediately before loading for FACS (diluted by approximately 1 mL at a time to maintain a temperature of 4° C.).
Afterward, under the following conditions, FACS Instruction (BD ARIAIII, laser at wavelengths of 405 (for measuring F510) and 488 (for measuring F580), nozzle size: 100 μm, 2,000-3,000 events/sec), FACS analysis was performed by gating the cells corresponding to the upper 3.9-35% and the lower 3.9-35% of total cells according to the F510/F580 ratio. […]
Main factors for determining the therapeutic efficacy of hBM-MSCs, namely a colony forming unit-fibroblast (CFU-F) and a graft survival rate, were evaluated in cell culture models. […]

The test system of another assay is T cells. Nature of the assay: Anti-inflammatory effect of treated hUC-MSCs: T cell proliferation, T cell differentiation, Treg cell differentiation. Format: cell-based. To be noted: for T cell differentiation capacity / T cell proliferation ability / Treg cell differentiation: hUC-MSCs treated with 1 μM ferrostatin-1 24 h, 0.2 mM GGC 2 h or 2 mM GSH-EE 2 h. As for the experimental part:
The inventors observed an effect of the material on stem cells by treating each stem cells with a material for enhancing a glutathione evaluation parameter. When hUC-MSCs were subcultured in a L-AA2G-containing medium, CFU-F, migration capacity, and an anti-inflammatory effect were observed. A CFU-F assay (n=3) was performed by treating hUC-MSCs with 125 or 250 μg/mL of AA2G for three days. As shown in FIGS. 16A and 16B, it was confirmed that, when AA2G was treated, CFU-F increased. In addition, as hUC-MSCs were treated with 125 or 250 μg/mL of AA2G for three days, PDGF-AA-induced migration capacity (n=3) was analyzed. As shown in FIGS. 17A and 17B, it was confirmed that the migration capacity was increased by AA2G treatment. In addition, the reduction in T cell proliferation, a reduction in T cell differentiation, and the promotion of Treg cell differentiation were observed by treating hUC-MSCs with 125 or 250 μg/mL of AA2G for three days.
In addition, hUC-MSCs were cultured with ferrostatin-1 (0.2, 1, 2 and 4 μM) and liproxstatin-1 (0.1, 0.5, 1 and 2 μM), which control a glutathione level in cells by inhibiting lipid oxidation. […] Meanwhile, the hUC-MSCs were treated with 1 μM ferrostatin-1 for 24 hours, 0.2 mM GGC for 2 hours, and 2 mM GSH-EE for 2 hours. As a result, the reduction in T cell proliferation ability and the reduction in T cell differentiation capacity were observed, and promotion of Treg cell differentiation was observed.

In assay [3] the test system is hUC-MSCs. The experiment in a line: SDF1α- and PDGF-AA-induced migration capacity of hUC-MSCs. Format: cell-based, human. To be noted: increasing GGC concentration (0.1, 0.25 mM). On the procedure: (§1) The inventors observed an effect of the material on stem cells by treating each stem cells with a material for enhancing a glutathione evaluation parameter. When hUC-MSCs were subcultured in a L-AA2G-containing medium, CFU-F, migration capacity, and an anti-inflammatory effect were observed. A CFU-F assay (n=3) was performed by treating hUC-MSCs with 125 or 250 μg/mL of AA2G for three days. As shown in FIGS. 16A and 16B, it was confirmed that, when AA2G was treated, CFU-F increased. In addition, as hUC-MSCs were treated with 125 or 250 μg/mL of AA2G for three days, PDGF-AA-induced migration capacity (n=3) was analyzed. As shown in FIGS. 17A and 17B, it was confirmed that the migration capacity was increased by AA2G treatment. In addition, the reduction in T cell proliferation, a reduction in T cell differentiation, and the promotion of Treg cell differentiation were observed by treating hUC-MSCs with 125 or 250 μg/mL of AA2G for three days. […] Meanwhile, hUC-MSCs were cultured with a glutathione precursor such as γ-glutamyl cysteine (GGC, 0.1, 0.25, and 0.5 mM). A CFU-F assay (n=3) was performed by treating hUC-MSCs with each concentration of GGC for 2 hours. […] In addition, SDF1α and PDGF-AA-induced migration capacities (n=3) were analyzed for hUC-MSCs without treatment with GGC, and SDF1α- and PDGF-AA-induced migration abilities (n=3) were analyzed by treating hUC-MSCs with the increasing concentrations of GGC. STI571 was used as a PDGFR kinase inhibitor. As shown in FIGS. 20A to 20C, it was confirmed that, according to an increase in GGC treatment concentration, SDF1α- and PDGF-AA-induced migration capacities were enhanced.

Assay [4] has as its system hUC-MSCs. Nature of the assay: CFU-F assay of hUC-MSCs. Format: cell-based, human. On the procedure:
as §1, with “enhanced. A CFU-F assay (n=3) was performed by treating hUC-MSCs with 0.2, 1, 2, and 4 μM ferrostatin-1 and 0.1, 0.5, 1, and 2 μM liproxstatin-1 for 24 hours.” for “enhanced.”

Assay [5] has as its system hUC-MSCs. The experiment in a line: Oxidative stress resistance capacity (ORC) analysis with RSL3. Format: cell-based, human. As to conditions: hUC-MSCs, 0, 2.5, 5 or 10 μM liproxstatin-1 with 0, 0.5 or 1 μM RSL3; concentration-dependent. As for the experimental part:
In addition, GH is calculated as the coefficient of variation or robust coefficient of variation of cellular FR. GRC refers to a value obtained by real-time monitoring of FR after living cells are treated with an oxidizing agent, as calculated by dividing a value obtained by subtracting AUC of a group treated with 0.1-100 mM N-ethylmaleimide (NEM) from FR AUC of an oxidizing agent (diamide, H2O2, etc.)-treated group by a value obtained by subtracting the AUC of NEM-treated group from AUC of the untreated control, and multiplying the resulting value by 100. The FR of the NEM-treated group is a value for increasing the sensitivity of a GRC value by treating it as the blank value of the FR of the cells of interest. […] To remove the MitoFreSH-Tracer from the medium before measurement, the medium was exchanged with fresh 10 mM HEPES-containing HBSS, and a fluorescence image was obtained using a confocal imaging system, Operetta. By comparing GSH levels quantified from control cells not treated with RSL3 or control cells before treated with RSL3, the distribution of GSH expression-changed cells was calculated. Based on the point where the distribution histogram is divided into two peaks, the cells were divided into GSH^High cells (right peak) and GSH^Low cells (left peak), and then a ratio of corresponding cells was expressed as a percentage (%). […]

In the case of `CCCCS(=N)(=O)CCC(N)C(=O)O` (centres unmarked) [BSO, buthionine sulfoximine], the “PDGF-AA-induced cell migration capacity” value in the assay on hES-MSCs [1] is reported as “decreased”. Also, the CFU-F result in the assay with hES-MSCs [2] (GSH^High hES-MSCs, BSO 80 μM, 24 h) is recorded as “increased”.

Consider `N[C@@H](CCC(=O)N[C@@H](CS)C(=O)O)C(=O)O` [GGC, γ-glutamyl cysteine], for which, in the assay on T cells, the “T cell differentiation capacity” value is given as “reduction”, the “T cell proliferation ability” value is reported as “reduction” and the Treg cell differentiation entry is on record as “promotion”. Also, the anti-inflammatory effect result in the assay with T cells (hUC-MSCs with GGC treatment (FIGS. 27, 28A to 28C)) is on record as “no change”. Further, in the assay with hUC-MSCs [3], the PDGF-AA-induced migration capacity result is “enhanced” and the SDF1α-induced migration capacity result is reported as “enhanced”. In addition, in the assay on hUC-MSCs [4] (GGC 0.1, 0.25 and 0.5 mM, 2 hours), the CFU-F result is “increased”.

Consider `CCOC(=O)CNC(=O)[C@H](CS)NC(=O)CC[C@H](N)C(=O)O` [GSH-EE, glutathione ethyl ester], for which the “PDGF-AA-induced cell migration capacity” value in the assay on hES-MSCs [1] was “increased”. Further, in the assay with hES-MSCs [2] (GSH^Low hES-MSCs, GSH-EE 1 mM, 2 h), the CFU-F entry is “decreased”. Moreover, in the assay with T cells, the “T cell differentiation capacity” value was “reduction”, the “T cell proliferation ability” value is “reduction” and the Treg cell differentiation entry was “promotion”.

In the case of `Clc1cccc(CN=C2Nc3ccccc3NC23CCNCC3)c1` [liproxstatin-1], in the assay on T cells (ferrostatin-1 or liproxstatin-1 treatment (FIGS. 27, 28A to 28C)), the “anti-inflammatory effect of the hUC-MSCs” value is given as “did not alter”. Further, in the assay on hUC-MSCs [5], the “ratio of the GSH^High cells (ORC)” value was “increased”. Also, the CFU-F result in the assay on hUC-MSCs [4] (ferrostatin-1 0.2, 1, 2, 4 μM or liproxstatin-1 0.1, 0.5, 1, 2 μM, 24 hours) is reported as “improved”.
